Several values for one entry are separate records, joined by “and”; a condition that tells them apart may be missing. Equal values may be shown once. Entries after “also recorded” stand apart in the source; their conditions may differ. Read-outs that look alike come from different tables or passages of the source.
Experiments:
[1] = target: T1, Mag-Trypsin activated MMP-9 (MMP-9(MT)) (Homo sapiens, UniProt P14780); assay: Enzyme inhibition kinetics, fluorogenic substrate ES001; assay type: biochemical; settings: for Vi/V0 avg: Trypsin activated MMP-9, average
T1 construct: made in house; host or cells: Sf9 and High Five insect cells
T1 sequence (P14780 107-707 limits assumed): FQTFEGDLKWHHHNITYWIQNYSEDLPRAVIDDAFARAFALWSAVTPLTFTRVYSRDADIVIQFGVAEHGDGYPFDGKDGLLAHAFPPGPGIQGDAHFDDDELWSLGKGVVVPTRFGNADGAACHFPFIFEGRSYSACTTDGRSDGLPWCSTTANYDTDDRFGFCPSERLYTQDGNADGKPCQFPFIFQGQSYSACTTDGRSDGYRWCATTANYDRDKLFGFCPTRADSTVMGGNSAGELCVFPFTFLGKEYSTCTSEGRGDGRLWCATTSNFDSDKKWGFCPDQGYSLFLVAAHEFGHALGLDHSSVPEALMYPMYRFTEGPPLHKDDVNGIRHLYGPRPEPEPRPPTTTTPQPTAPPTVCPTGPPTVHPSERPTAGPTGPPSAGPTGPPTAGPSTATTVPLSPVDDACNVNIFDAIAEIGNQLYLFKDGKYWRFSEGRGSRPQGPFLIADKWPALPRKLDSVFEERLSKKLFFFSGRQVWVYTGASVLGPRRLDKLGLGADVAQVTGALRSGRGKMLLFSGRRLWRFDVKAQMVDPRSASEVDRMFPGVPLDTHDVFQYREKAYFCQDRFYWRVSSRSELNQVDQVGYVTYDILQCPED

aureolysin (ALN) = target: T2, aureolysin (ALN) (Staphylococcus aureus, UniProt P81177); assay: Enzyme inhibition kinetics, fluorogenic substrate ES005; assay type: biochemical; settings: for remaining activity at 100 µM: 100 µM inhibitor
T2 construct: purchased BioCentrum Ltd (Kraków, Poland)
T2 sequence (P81177 209-509): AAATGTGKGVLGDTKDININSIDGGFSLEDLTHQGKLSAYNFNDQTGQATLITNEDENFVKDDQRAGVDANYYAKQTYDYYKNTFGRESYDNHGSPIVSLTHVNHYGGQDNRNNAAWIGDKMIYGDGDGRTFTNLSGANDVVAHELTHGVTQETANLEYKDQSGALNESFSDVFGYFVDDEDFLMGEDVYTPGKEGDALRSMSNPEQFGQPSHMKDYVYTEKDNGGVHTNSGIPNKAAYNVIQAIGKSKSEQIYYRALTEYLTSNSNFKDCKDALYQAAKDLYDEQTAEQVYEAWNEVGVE

pseudolysin (PLN, LasB) = target: T3, pseudolysin (PLN, LasB) (Pseudomonas aeruginosa, UniProt P14756); assay: as above; assay type: biochemical; settings: for remaining activity at 100 µM: 100 µM inhibitor
T3 construct: purchased Calbiochem (San Diego, CA, USA)
T3 sequence (P14756 198-498): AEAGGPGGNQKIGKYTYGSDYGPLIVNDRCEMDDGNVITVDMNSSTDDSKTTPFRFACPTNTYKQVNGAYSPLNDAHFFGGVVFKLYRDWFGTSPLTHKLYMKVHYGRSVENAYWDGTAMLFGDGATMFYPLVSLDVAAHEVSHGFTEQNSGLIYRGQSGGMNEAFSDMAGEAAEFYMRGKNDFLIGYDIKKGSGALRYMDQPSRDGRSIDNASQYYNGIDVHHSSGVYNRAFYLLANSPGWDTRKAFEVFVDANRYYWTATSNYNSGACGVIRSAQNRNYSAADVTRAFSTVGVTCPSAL

thermolysin (TLN) = target: T4, thermolysin (TLN) (Bacillus thermoproteolyticus, UniProt P00800); assay: as above; assay type: biochemical; settings: for vi/v0 avg (time dependent inhibition, Supplementary Figure S8): Thermolysin, inhibitor 100 µM
T4 construct: purchased Calbiochem (San Diego, CA, USA)
T4 sequence (P00800 233-548): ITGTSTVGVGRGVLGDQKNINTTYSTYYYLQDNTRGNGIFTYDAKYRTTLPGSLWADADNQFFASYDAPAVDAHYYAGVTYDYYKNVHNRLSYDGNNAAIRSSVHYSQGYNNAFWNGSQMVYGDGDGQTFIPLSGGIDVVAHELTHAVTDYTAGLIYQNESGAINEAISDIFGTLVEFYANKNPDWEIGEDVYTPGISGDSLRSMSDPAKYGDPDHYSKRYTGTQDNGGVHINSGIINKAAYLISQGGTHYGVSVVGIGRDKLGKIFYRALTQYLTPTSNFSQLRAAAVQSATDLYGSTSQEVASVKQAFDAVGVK
Procedure, shortened: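 Initial rates were read at 37 °C (ex 320/em 405 nm) with 4.0 µM substrate, ES001 for MMP-14 (1.0 nM) and ES005 for PLN (0.5 nM), TLN (0.21 nM), ALN (1.4 nM), in pH 7.5 Hepes, 10 mM CaCl2, 0.005% Brij-35, 1.0% DMSO. Enzymes were preincubated 30 min at room temperature or not; IC50 fitted, Ki from IC50 using Km.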

MMP-9 = settings: previously reported; cited from earlier work
MMP-14 = settings: previously reported; cited from earlier work

## NC(=O)C(CCC(=O)O)NC(=O)C(CCC(=O)O)NC(=O)C(Cc1cc(-c2ccc(-c3cccc(Cl)c3)cc2)no1)CP(=O)(O)c1ccc(Br)cc1 (stereo not drawn) [H-1]
[1]; [H1] 30 μM
  Vi/V0 avg: 0.6506
[1]; [H1] 40 μM
  Vi/V0 avg: 0.6729
[1]; [H1] 50 μM
  Vi/V0 avg: 0.6218
[1]; [H1] 60 μM
  Vi/V0 avg: 0.5683
[1]; [H1] 70 μM
  Vi/V0 avg: 0.5353
[1]; [H1] 80 μM
  Vi/V0 avg: 0.5363
[1]; [H1] 90 μM
  Vi/V0 avg: 0.4452
[1]; [H1] 100 μM
  Vi/V0 avg: 0.4212
[1]; rMMP-9 (Mag-trypsin activated), inhibitor 100 μM, average over 0, 15, 30 min preincubation
  vi/v0 Av (bar diagram figure 7): 0.4755
[1]; rMMP-9 (Mag-trypsin activated), inhibitor 100 μM, preincubation 0 min
  vi/v0 (relative enzyme activity with inhibitor), single determinations: 0.4571 and 0.4536 and 0.4887 and 0.489
[1]; rMMP-9 (Mag-trypsin activated), inhibitor 100 μM, preincubation 15 min
  vi/v0 (relative enzyme activity with inhibitor), single determinations: 0.3806 and 0.5206 and 0.4881 and 0.528
[1]; rMMP-9 (Mag-trypsin activated), inhibitor 100 μM, preincubation 30 min
  vi/v0 (relative enzyme activity with inhibitor), single determinations: 0.4739 and 0.4997 and 0.4971 and 0.4295
[1]; read-out: Vi/V0, Trypsin activated MMP-9, [H1] 10 μM, replicate vi over each of 4 controls
  remaining activity at 10 µM: 76.1%
[1]; read-out: Vi/V0, Trypsin activated MMP-9, [H1] 40 μM, replicate vi over each of 4 controls
  remaining activity at 40 µM: 63.2%
[1]; read-out: Vi/V0, Trypsin activated MMP-9, [H1] 50 μM, replicate vi over each of 4 controls
  remaining activity at 50 µM: 58.9%
[1]; read-out: Vi/V0, Trypsin activated MMP-9, [H1] 60 μM, replicate vi over each of 4 controls
  remaining activity at 60 µM: 52.9%
[1]; read-out: Vi/V0, Trypsin activated MMP-9, [H1] 70 μM, replicate vi over each of 4 controls
  remaining activity at 70 µM: 49.6%
[1]; read-out: Vi/V0, Trypsin activated MMP-9, [H1] 80 μM, replicate vi over each of 4 controls
  remaining activity at 80 µM: 51%
[1]; read-out: Vi/V0, Trypsin activated MMP-9, [H1] 90 μM, replicate vi over each of 4 controls
  remaining activity at 90 µM: 44.2%
[1]; read-out: Vi/V0, Trypsin activated MMP-9, [H1] 100 μM, replicate vi over each of 4 controls
  remaining activity at 100 µM: 40.5%
[1]; read-out: vi/v0 (single replicate), rMMP-9 (Mag-trypsin activated), 100 µM inhibitor, no preincubation
  remaining activity at 100 µM: 45.7%
[1]; read-out: vi/v0 avg, rMMP-9 (Mag-trypsin activated), 100 µM inhibitor, no preincubation
  remaining activity at 100 µM: 47.2%
Aureolysin (ALN); 0.25 h, read-out: vi/v0 (single replicate), Aureolysin, 15 min pre incubation
  remaining activity at 100 µM: 81.9%
Aureolysin (ALN); 0.25 h, read-out: vi/v0 avg, Aureolysin, 15 min pre incubation
  remaining activity at 100 µM: 88.7%
Aureolysin (ALN); 0.5 h, read-out: vi/v0 (single replicate), Aureolysin, 30 min pre incubation
  remaining activity at 100 µM: 89.6%
Aureolysin (ALN); 0.5 h, read-out: vi/v0 avg, Aureolysin, 30 min pre incubation
  remaining activity at 100 µM: 89.8%
Aureolysin (ALN); ALN, 100 μM compound, in words, 100 µM
  inhibitory effect on enzymatic activity: did not inhibit; also recorded: no inhibition
Aureolysin (ALN); Aureolysin (ALN), inhibitor 100 μM, average over 0, 15, 30 min preincubation
  vi/v0 Av (bar diagram figure 7): 0.886
Aureolysin (ALN); Aureolysin (ALN), inhibitor 100 μM, preincubation 0 min
  vi/v0 (relative enzyme activity with inhibitor), single determinations: 0.8363 and 0.9057 and 0.9048 and 0.862
Aureolysin (ALN); Aureolysin (ALN), inhibitor 100 μM, preincubation 15 min
  vi/v0 (relative enzyme activity with inhibitor), single determinations: 0.8192 and 0.9295 and 0.9112
Aureolysin (ALN); Aureolysin (ALN), inhibitor 100 μM, preincubation 30 min
  vi/v0 (relative enzyme activity with inhibitor), single determinations: 0.8961 and 0.9218 and 0.8734
Aureolysin (ALN); read-out: vi/v0 (single replicate), Aureolysin, no preincubation
  remaining activity at 100 µM: 83.6%
Aureolysin (ALN); read-out: vi/v0 avg, Aureolysin, no preincubation
  remaining activity at 100 µM: 87.7%
Pseudolysin (PLN, LasB); 0.25 h, read-out: vi/v0 (single replicate), Pseudolysin, 15 min pre incubation
  remaining activity at 100 µM: 97.4%
Pseudolysin (PLN, LasB); 0.25 h, read-out: vi/v0 avg, Pseudolysin, 15 min pre incubation
  remaining activity at 100 µM: 100%
Pseudolysin (PLN, LasB); 0.5 h, read-out: vi/v0 (single replicate), Pseudolysin, 30 min pre incubation
  remaining activity at 100 µM: 99%
Pseudolysin (PLN, LasB); 0.5 h, read-out: vi/v0 avg, Pseudolysin, 30 min pre incubation
  remaining activity at 100 µM: 96.9%
Pseudolysin (PLN, LasB); PLN, 100 μM compound, in words, 100 µM
  inhibitory effect on enzymatic activity: did not inhibit; also recorded: no inhibition
Pseudolysin (PLN, LasB); Pseudolysin (PLN), inhibitor 100 μM, average over 0, 15, 30 min preincubation
  vi/v0 Av (bar diagram figure 7): 0.993
Pseudolysin (PLN, LasB); Pseudolysin (PLN), inhibitor 100 μM, preincubation 0 min
  vi/v0 (relative enzyme activity with inhibitor), single determinations: 0.9731 and 1.039 and 1.005 and 1.023
Pseudolysin (PLN, LasB); Pseudolysin (PLN), inhibitor 100 μM, preincubation 15 min
  vi/v0 (relative enzyme activity with inhibitor), single determinations: 0.9736 and 1.014 and 0.9905 and 1.0217
Pseudolysin (PLN, LasB); Pseudolysin (PLN), inhibitor 100 μM, preincubation 30 min
  vi/v0 (relative enzyme activity with inhibitor), single determinations: 0.9904 and 0.9857 and 0.9514 and 0.949
Pseudolysin (PLN, LasB); read-out: vi/v0 (single replicate), Pseudolysin, no preincubation
  remaining activity at 100 µM: 97.3%
Pseudolysin (PLN, LasB); read-out: vi/v0 avg, Pseudolysin, no preincubation
  remaining activity at 100 µM: 101%
Thermolysin (TLN); TLN, 100 μM compound, in words, 100 µM
  inhibitory effect on enzymatic activity: did not inhibit; also recorded: no inhibition
Thermolysin (TLN); Thermolysin (TLN), inhibitor 100 μM, average over 0, 15, 30 min preincubation
  vi/v0 Av (bar diagram figure 7): 1.079
Thermolysin (TLN); Thermolysin (TLN), inhibitor 100 μM, preincubation 0 min
  vi/v0 (relative enzyme activity with inhibitor), single determinations: 1.072 and 1.233 and 0.6933 and 1.269
Thermolysin (TLN); Thermolysin (TLN), inhibitor 100 μM, preincubation 15 min
  vi/v0 (relative enzyme activity with inhibitor), single determinations: 1.072 and 0.7991 and 1.161 and 1.236
Thermolysin (TLN); Thermolysin (TLN), inhibitor 100 μM, preincubation 30 min
  vi/v0 (relative enzyme activity with inhibitor), single determinations: 1.057 and 0.7107 and 1.167 and 1.093
Thermolysin (TLN); 15 min pre incubation
  vi/v0 avg (time dependent inhibition, Supplementary Figure S8): 1.067
Thermolysin (TLN); 30 min pre incubation
  vi/v0 avg (time dependent inhibition, Supplementary Figure S8): 1.007
Thermolysin (TLN); No preincubation
  vi/v0 avg (time dependent inhibition, Supplementary Figure S8): 1.0666
MMP-9
  Ki: 1300 nM
MMP-14
  Ki: 140 nM
